Settings in all cases: stereoisomer not certain
Series [1] in a line: RP, 100 × 0.5 mm, 2.7 µm, 45 °C, 0.015 mL/min, estimated dead time 0.83 min; A: water + 0.9% formic acid; B: acetonitrile + 0.9% formic acid; gradient (min/%B) 0/1 0.5/1 4/95 4.5/1 5/1.
A short description of series [2]: RP, 50 × 0.5 mm, 2.7 µm, 35 °C, 0.01 mL/min, estimated dead time 0.62 min; A: water + 0.1% formic acid, pH 3; B: acetonitrile + 0.1% formic acid, pH 3; gradient (min/%B) 0/5 12/95 14/95 16/5.
Series [3] is described as follows: RP, Phenomenex Kinetex EVO C18, 100 × 2.1 mm, 2.6 µm, 40 °C, 0.4 mL/min, estimated dead time 0.55 min; A: water + 0.2% formic acid; B: acetonitrile + 0.2% formic acid; gradient (min/%B) 0/5 0.5/5 7/95 8/95 8.5/5 12/5.
Series [4] can be described thus: RP, Phenomenex Synergi Hydro-RP, 150 × 2 mm, 4 µm, 30 °C, 0.5 mL/min, estimated dead time 0.6 min; A: water + 0.1% formic acid, pH 3; B: acetonitrile + 0.1% formic acid, pH 3; gradient (min/%B) 0/5 1/5 35/45 40/100 45/100.
Series [5] is described as follows: RP, Phenomenex Luna Omega Polar C18, 100 × 2.1 mm, 1.6 µm, 40 °C, 0.5 mL/min, estimated dead time 0.44 min; A: water + 0.5% formic acid; B: acetonitrile + 0.5% formic acid; gradient (min/%B) 0/5 3/50 3.1/100 5/100 5.1/5 7/5.
Series [6] can be described thus: RP, Phenomenex Luna C18, 150 × 4.6 mm, 3 µm, 25 °C, 0.5 mL/min, estimated dead time 3.2 min; A: water + 0.1% formic acid, pH 3; B: acetonitrile + 0.1% formic acid, pH 3; gradient (min/%B) 0/0 30/30 35/40 50/80 52/80 60/0 65/0.
The nature of series [7]: RP, Waters ACQUITY UPLC HSS T3, 100 × 2.1 mm, 50 °C; A: water + 0.1% formic acid, pH 3; B: 30% methanol + 70% acetonitrile + 0.1% formic acid, pH 3; gradient (min/%B) 0/5 1/8 2/15 3/40 4/70 4.5/100 5/100 6.4/100 6.6/5 6.8/5 7/5.
A short description of series [8]: RP, Phenomenex Luna Omega Polar C18, 100 × 2.1 mm, 1.6 µm, 40 °C, 0.5 mL/min, estimated dead time 0.44 min; A: water + 0.1% formic acid + 10 mM ammonium formate; B: acetonitrile; gradient (min/%B) 0/5 8/20 10/100 12/100 12.1/5 14/5.
Series [9] is described as follows: RP, Waters ACQUITY UPLC HSS T3, 100 × 2.1 mm, 1.8 µm, 30 °C, 0.4 mL/min, estimated dead time 0.55 min; A: water + 0.1% formic acid, pH 3; B: acetonitrile + 0.1% formic acid, pH 3; gradient (min/%B) 0/0 2/0 15/100 22/100 22.1/0 26/0.
Series [10] can be described thus: RP, Agilent ZORBAX Eclipse XDB-C18, 100 × 2.1 mm, 1.8 µm, 50 °C, 0.4 mL/min, estimated dead time 0.55 min; A: water + 0.1% formic acid, pH 3; B: methanol + 0.1% formic acid, pH 3; gradient (min/%B) 0/2 10/100 14.5/100 14.51/2 16.5/2.
The nature of series [11]: RP, Waters ACQUITY UPLC BEH C18, 100 × 2.1 mm, 1.7 µm, 65 °C, 0.4 mL/min, estimated dead time 0.55 min; A: water + 0.1% formic acid, pH 3; B: 80% acetonitrile + 20% acetone + 0.1% formic acid, pH 3; gradient (min/%B) 0/0 5/100 5.5/0 6/0.
Series [12] can be described thus: RP, Waters ACQUITY UPLC BEH Shield RP18, 100 × 2.1 mm, 1.7 µm, 30 °C, 0.6 mL/min, estimated dead time 0.37 min; A: water + 0.1% formic acid, pH 3; B: acetonitrile + 0.1% formic acid, pH 3; gradient (min/%B) 0/0 2/0 7/10 22/95 22.1/0 26/0.
Series [13] in a line: RP, Waters ACQUITY UPLC BEH Shield RP18, 150 × 2.1 mm, 1.7 µm, 40 °C, 0.4 mL/min, estimated dead time 0.83 min; A: water + 0.1% formic acid, pH 3; B: acetonitrile + 0.1% formic acid, pH 3; gradient (min/%B) 0/0 30/50 31/100 37/100 37.1/0.
Series [14] in a line: RP, Agilent ZORBAX RRHD Eclipse Plus C18, 50 × 2.1 mm, 1.8 µm, 30 °C, 0.4 mL/min, estimated dead time 0.28 min; A: water + 0.1% formic acid, pH 3; B: acetonitrile + 0.1% formic acid, pH 3; gradient (min/%B) 0/1 5/10 8/25 9.1/99 10/99 12/1.
A short description of series [15]: RP, Agilent ZORBAX RRHD Eclipse Plus C18, 50 × 2.1 mm, 1.8 µm, 30 °C, 0.4 mL/min, estimated dead time 0.28 min; A: water + 0.1% formic acid, pH 3; B: acetonitrile + 0.1% formic acid, pH 3; gradient (min/%B) 0/1 5/10 8/25 9.1/99 10/99 12/99.
Series [16] can be described thus: RP, Agilent InfinityLab Poroshell 120 EC-C18, 100 × 3 mm, 2.7 µm, 25 °C, 0.4 mL/min, estimated dead time 1.1 min; A: water + 0.1% formic acid, pH 3; B: acetonitrile + 0.1% formic acid, pH 3; gradient (min/%B) 0/5 10/25 20/40 24/90 25/90 26/5 30/5.
Series [17] is described as follows: RP, Phenomenex Synergi Hydro-RP, 250 × 2 mm, 4 µm, 25 °C, 0.2 mL/min, estimated dead time 2.5 min; A: water + 0.1% formic acid, pH 3; B: acetonitrile + 0.1% formic acid, pH 3; gradient (min/%B) 0/0.5 7/0.5 12/12.5 25/16.3 47/35 48/65 50/65 50.1/0.5.
Series [18] is described as follows: Other, Phenomenex Kinetex PFP, 100 × 4.6 mm, 2.6 µm, 35 °C, 1.5 mL/min, estimated dead time 0.71 min; A: water + 0.1% trifluoroacetic acid, pH 2; B: acetonitrile + 0.1% trifluoroacetic acid, pH 2; gradient (min/%B) 0/1 7/7.5 14/7.6 17/10 18.5/12 20/12.5 24/30 25/90 25.1/1 32/1.
A short description of series [19]: RP, Merck LiChrospher RP-18, 250 × 4 mm, 5 µm, 35 °C, 0.3 mL/min, estimated dead time 6.7 min; A: water + 0.5% formic acid; B: acetonitrile + 0.5% formic acid; gradient (min/%B) 0/5 10/5 30/15 45/20 65/20 95/54 110/63 115/5 135/5.
The nature of series [20]: RP, Merck Supelco SUPELCOSIL LC-C18, 250 × 4.6 mm, 5 µm, 40 °C, 1 mL/min, estimated dead time 2.6 min; A: water + 0.1% trifluoroacetic acid, pH 2; B: acetonitrile + 0.1% trifluoroacetic acid, pH 2; gradient (min/%B) 0/5 45/35 47/75 49/35 50/5.
A short description of series [21]: RP, Waters Atlantis T3, 100 × 2.1 mm, 3 µm, 40 °C, 0.3 mL/min, estimated dead time 0.73 min; A: water + 0.1% trifluoroacetic acid, pH 2; B: acetonitrile + 0.1% trifluoroacetic acid, pH 2; gradient (min/%B) 0/10 1/10 6/40 7/50 8/50 14/70 16/80 20/10 25/10.
A short description of series [22]: Other, Phenomenex Kinetex PFP, 100 × 4.6 mm, 5 µm, 45 °C, 0.6 mL/min, estimated dead time 1.8 min; A: water + 0.1% trifluoroacetic acid, pH 2; B: methanol; gradient (min/%B) 0/40 20/72 21/40.
Series [23] can be described thus: RP, 150 × 2.1 mm, 2.6 µm, 40 °C, 0.35 mL/min, estimated dead time 0.94 min; A: water + 0.1% formic acid, pH 3; B: acetonitrile + 0.1% formic acid, pH 3; gradient (min/%B) 0/0 1/0 12.5/100 14/100 14.2/0 15/0.
A short description of series [24]: RP, 150 × 2.1 mm, 2.6 µm, 40 °C, 0.35 mL/min, estimated dead time 0.94 min; A: water + 0.1% formic acid, pH 3; B: acetonitrile + 0.1% formic acid, pH 3; gradient (min/%B) 0/0 1/5 7/45 8.5/80 10.5/80 11/5 12/5.

LC retention time data for five compounds are collected here from the RepoRT retention time repository (doi:10.1016/j.foodchem.2021.129757).

Each structure is given as a SMILES string.

Consider `O=C(O)CNC(=O)c1ccccc1` [Hippuric acid], for which the LC retention time is 2.13 min in series [1]; 2.59 min in series [2]; 3.8 min in [3]; 8.54 min in series [4]; 2.01 min in series [5]; 15.1 min in [6]. The LC retention time in [7] is 3.07 min; in series [8], 3.2 min; in [9], 8.4 min; in [10], 3.29 min; in [11] it was 1.86 min; in series [12] it was 6.13 min. Moreover, the LC retention time in series [13] is 5.38 min; in [14], 4.73 min; in series [15] it was 3.49 min; in [16], 6.09 min; in [17], 20.2 min; in [18], 7.15 min.

With `O=C(CCc1ccc(O)cc1)c1c(O)cc(O)cc1OC1OC(CO)C(O)C(O)C1O` (stereo not drawn) [Phloridzin], the LC retention time is 81.1 min in series [19]; 9.96 min in [9]; 14.2 min in series [13]; 30.8 min in [20]; 39.6 min in series [17]; 8.22 min in series [21]. Further, the LC retention time in [18] is 24.6 min.

As for `O=C(O)c1ccc(O)c(O)c1` [Protocatechuic acid], the LC retention time was 1.76 min in series [2]; 3.85 min in series [22]; 1.55 min in [3]; 5.02 min in series [4]; 1.54 min in series [5]; 9.27 min in series [6]. Moreover, the LC retention time is 29.7 min in series [19]; 2.06 min in series [8]; 7.22 min in series [9]; 2.31 min in [10]; 1.48 min in series [11]; 5.2 min in [12]. Also, the LC retention time in series [13] was 4.01 min; in series [14], 2.12 min; in [15], 1.38 min; in series [20], 7.9 min; in series [16], 3.96 min; in series [17], 16.4 min. Besides, the LC retention time was 2.23 min in series [21] and 4.92 min in series [18].

Take `COc1cc(C=CC(=O)O)cc(OC)c1O` [Sinapic acid]: the LC retention time in series [2] was 4.25 min; in series [23] it was 2.81 min; in series [24] it was 2.79 min; in [4] it was 15.2 min; in series [5], 2.53 min; in [6] it was 25.1 min. Also, the LC retention time was 7.22 min in series [8]; 9.44 min in series [9]; 4.97 min in series [10]; 2.1 min in series [11]; 12.5 min in series [12]; 11.1 min in series [13]. Besides, the LC retention time in series [14] was 7.6 min; in [15] it was 7.99 min; in series [20], 23.3 min; in series [16] it was 9.78 min; in [17], 33 min; in series [18] it was 22.3 min.

On to `COc1cc(C(=O)O)ccc1O` [Vanillic acid], for which the LC retention time in series [2] was 2.97 min; in series [23], 3.6 min; in series [24], 3.36 min; in series [5], 2.07 min; in series [6], 15.7 min; in [7], 3.2 min. Also, the LC retention time in series [19] is 44.7 min; in [8], 4.01 min; in series [9], 8.52 min; in series [10], 3.61 min; in [11] it was 1.8 min; in series [12], 9.67 min. Further, the LC retention time in series [13] is 6.96 min; in [14], 4.25 min; in [15], 1.83 min; in [20], 13.7 min; in series [16] it was 6.3 min; in series [17] it was 22.1 min. Further, the LC retention time in series [21] was 10 min; in series [18], 9.34 min.
